Test results published in PMC8963254, “Effects of Lysine N-ζ-Methylation in Ultrashort Tetrabasic Lipopeptides (UTBLPs) on the Potentiation of Rifampicin, Novobiocin, and Niclosamide in Gram-Negative Bacteria” (Antibiotics, 2022).
Converted amounts (≈) assume the structure as drawn. Where two headings read alike, the source gives them in different places. Residues, ends and D or L forms follow the SMILES beside them. *: point of attachment. Octanoyl = CCCCCCCC(=O)*

Assays:
E. faecium ATCC 27270 [1] = format: cell-based, Enterococcus faecium
Outline: (§1)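 Checkerboard synergy assay: antibiotic and OMP combined at varying concentrations with 5 × 10^5 CFU/mL inoculum (final), 37 °C, 18 h; growth read as turbidity at 590 nm. FICI = sum of FICs (MIC in combination / MIC alone); ≤0.5 synergistic, 0.5–4 additive, >4 antagonistic.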

K. pneumoniae 113250 [2] = test: microbe, parasite or virus in culture; format: cell-based, Klebsiella pneumoniae; conditions: 113250, 18 h
Outline: (§2)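 Minimum inhibitory concentration came from a CLSI broth dilution assay: 18 h at 37 °C, inoculum 5 × 10^5 CFU/mL final.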

A. baumannii AB027 = test: microbe, parasite or virus in culture; format: cell-based, Acinetobacter baumannii; conditions: AB027, 18 h
Outline: as §2

A. baumannii AB92247 = test: microbe, parasite or virus in culture; format: cell-based, Acinetobacter baumannii; conditions: AB92247, 18 h
Outline: as §2

E. faecium ATCC 27270 [3] = format: cell-based, Enterococcus faecium; conditions: ATCC 27270, 18 h
Outline: as §2

E. coli ATCC 25922 [4] = format: cell-based, Escherichia coli; conditions: for MICUTBLP: UTBLP alone
Outline: as §1

E. coli 94474 [5] = format: cell-based, Escherichia coli; conditions: for MICUTBLP: UTBLP alone
Outline: as §1

E. coli 94393 [6] = format: cell-based, Escherichia coli; conditions: for MICUTBLP: UTBLP alone
Outline: as §1

E. coli 94474 [7] = test: microbe, parasite or virus in culture; format: cell-based, Escherichia coli; conditions: 94474, 18 h
Outline: as §2

E. coli 94393 [8] = test: microbe, parasite or virus in culture; format: cell-based, Escherichia coli; conditions: 94393, 18 h
Outline: as §2

S. aureus ATCC 29213 = format: cell-based, Staphylococcus aureus
Outline: as §1

MRSA ATCC 33592 = format: cell-based, Staphylococcus aureus
Outline: as §1

E. coli ATCC 25922 [9] = format: cell-based, Escherichia coli; conditions: ATCC 25922, 18 h
Outline: as §2

K. pneumoniae 113250 [10] = format: cell-based, Klebsiella pneumoniae; conditions: for MICUTBLP: UTBLP alone
Outline: as §1

MSSE 81388 [11] = format: cell-based, Staphylococcus epidermidis; conditions: 18 h
Outline: as §2

MRSE 61589 [12] = format: cell-based, Staphylococcus epidermidis; conditions: 61589, 18 h
Outline: as §2

MSSE 81388 [13] = format: cell-based, Staphylococcus epidermidis
Outline: as §1

MRSE 61589 [14] = format: cell-based, Staphylococcus epidermidis
Outline: as §1

E. faecalis ATCC 29212 [15] = format: cell-based, Enterococcus faecalis
Outline: as §1

A. baumannii ATCC 17978 = format: cell-based, Acinetobacter baumannii; conditions: ATCC 17978, 18 h
Outline: as §2

E. faecalis ATCC 29212 [16] = format: cell-based, Enterococcus faecalis; conditions: ATCC 29212, 18 h
Outline: as §2

[17] = UTBLP alone, plate with chloramphenicol
[18] = UTBLP in combination with chloramphenicol
[19] = chloramphenicol in combination with the UTBLP
[20] = UTBLP in combination with novobiocin
[21] = UTBLP in combination with rifampicin
[22] = novobiocin in combination with the UTBLP
[23] = rifampicin in combination with the UTBLP

CCCCCCCC(=O)NCCCC[C@H](NC(=O)CCCCCCC)C(=O)N[C@@H](CCCCN)C(=O)N[C@@H](CCCCN)C(=O)N[C@@H](CCCCN)C(=O)N[C@@H](CCCCN)C(N)=O [UTBLP 5] (Octanoyl-K(Octanoyl)KKKK-NH2)
Interpretation (E. faecium ATCC 27270 [1]; UTBLP + chloramphenicol): Additive (0.5 < x ≤ 4 is additive)
MICUTBLP (E. faecium ATCC 27270 [1]; [17]): 32 µg/mL
MICUTBLP [MICcombo] (E. faecium ATCC 27270 [1]; [18]): 8 µg/mL
MICchloramphenicol [MICcombo] (E. faecium ATCC 27270 [1]; [19]): 2 µg/mL
MIC (K. pneumoniae 113250 [2]): > 128 µg/mL
MIC (A. baumannii AB027): 128 µg/mL (≈ 141 µM)
MIC (A. baumannii AB92247): 32 µg/mL (≈ 35.2 µM)
MIC (E. faecium ATCC 27270 [3]): 32 µg/mL (≈ 35.2 µM)
Interpretation (E. coli ATCC 25922 [4]; UTBLP + chloramphenicol): Synergy (FICI ≤ 0.5 is synergistic)
Interpretation (E. coli ATCC 25922 [4]; UTBLP + niclosamide): Synergy (FICI ≤ 0.5 is synergistic)
Interpretation (E. coli ATCC 25922 [4]; UTBLP + novobiocin): Synergy (FICI ≤ 0.5 is synergistic)
Interpretation (E. coli ATCC 25922 [4]; UTBLP + rifampicin): Synergy (FICI ≤ 0.5 is synergistic)
MICUTBLP (E. coli ATCC 25922 [4]; plate with chloramphenicol): 64 µg/mL
MICUTBLP (E. coli ATCC 25922 [4]; plate with niclosamide): 64 µg/mL
MICUTBLP (E. coli ATCC 25922 [4]; plate with novobiocin): 64 µg/mL
MICUTBLP (E. coli ATCC 25922 [4]; plate with rifampicin): 64 µg/mL
MICUTBLP [MICcombo] (E. coli ATCC 25922 [4]; [18]): 16 µg/mL
MICUTBLP [MICcombo] (E. coli ATCC 25922 [4]; UTBLP in combination with niclosamide): 0.5 µg/mL
MICUTBLP [MICcombo] (E. coli ATCC 25922 [4]; [20]): 1 µg/mL
MICUTBLP [MICcombo] (E. coli ATCC 25922 [4]; [21]): 2 µg/mL
MICantibiotic [MICcombo] (E. coli ATCC 25922 [4]; [19]): 0.25 µg/mL
MICantibiotic [MICcombo] (E. coli ATCC 25922 [4]; niclosamide in combination with the UTBLP): 2 µg/mL
MICantibiotic [MICcombo] (E. coli ATCC 25922 [4]; [22]): 0.5 µg/mL
MICantibiotic [MICcombo] (E. coli ATCC 25922 [4]; [23]): 0.063 µg/mL
Interpretation (E. coli 94474 [5]; UTBLP + novobiocin): Synergy (FICI ≤ 0.5 is synergistic)
Interpretation (E. coli 94474 [5]; UTBLP + rifampicin): Synergy (FICI ≤ 0.5 is synergistic)
MICUTBLP (E. coli 94474 [5]; plate with novobiocin): 128 µg/mL
MICUTBLP (E. coli 94474 [5]; plate with rifampicin): 128 µg/mL
MICUTBLP [MICcombo] (E. coli 94474 [5]; [20]): 4 µg/mL
MICUTBLP [MICcombo] (E. coli 94474 [5]; [21]): 2 µg/mL
MICantibiotic [MICcombo] (E. coli 94474 [5]; [22]): 1 µg/mL
MICantibiotic [MICcombo] (E. coli 94474 [5]; [23]): 0.25 µg/mL
Interpretation (E. coli 94393 [6]; UTBLP + novobiocin): Synergy (FICI ≤ 0.5 is synergistic)
Interpretation (E. coli 94393 [6]; UTBLP + rifampicin): Synergy (FICI ≤ 0.5 is synergistic)
MICUTBLP (E. coli 94393 [6]; plate with novobiocin): 32 µg/mL
MICUTBLP (E. coli 94393 [6]; plate with rifampicin): 32 µg/mL
MICUTBLP [MICcombo] (E. coli 94393 [6]; [20]): 1 µg/mL
MICUTBLP [MICcombo] (E. coli 94393 [6]; [21]): 4 µg/mL
MICantibiotic [MICcombo] (E. coli 94393 [6]; [22]): 2 µg/mL
MICantibiotic [MICcombo] (E. coli 94393 [6]; [23]): 0.125 µg/mL
MIC (E. coli 94474 [7]): 128 µg/mL (≈ 141 µM)
MIC (E. coli 94393 [8]): 32 µg/mL (≈ 35.2 µM)
MICUTBLP (S. aureus ATCC 29213; [17]): 64 µg/mL
MICUTBLP [MICcombo] (S. aureus ATCC 29213; [18]): 16 µg/mL
MICchloramphenicol [MICcombo] (S. aureus ATCC 29213; [19]): 2 µg/mL
Interpretation (MRSA ATCC 33592; UTBLP + chloramphenicol): Additive (0.5 < x ≤ 4 is additive)
MICUTBLP (MRSA ATCC 33592; [17]): 64 µg/mL
MICUTBLP [MICcombo] (MRSA ATCC 33592; [18]): 0.25 µg/mL
MICchloramphenicol [MICcombo] (MRSA ATCC 33592; [19]): 64 µg/mL
MIC (E. coli ATCC 25922 [9]): 64 µg/mL (≈ 70.3 µM)
Interpretation (K. pneumoniae 113250 [10]; UTBLP + novobiocin): Synergy (FICI ≤ 0.5 is synergistic)
Interpretation (K. pneumoniae 113250 [10]; UTBLP + rifampicin): Synergy (FICI ≤ 0.5 is synergistic)
MICUTBLP (K. pneumoniae 113250 [10]; plate with novobiocin): > 128 µg/mL
MICUTBLP (K. pneumoniae 113250 [10]; plate with rifampicin): > 128 µg/mL
MICUTBLP [MICcombo] (K. pneumoniae 113250 [10]; [20]): 16 µg/mL
MICUTBLP [MICcombo] (K. pneumoniae 113250 [10]; [21]): 8 µg/mL
MICantibiotic [MICcombo] (K. pneumoniae 113250 [10]; [22]): 1 µg/mL
MICantibiotic [MICcombo] (K. pneumoniae 113250 [10]; [23]): 0.5 µg/mL
MIC (MSSE 81388 [11]): 16 µg/mL (≈ 17.6 µM)
MIC (MRSE 61589 [12]): 8 µg/mL (≈ 8.79 µM)
Interpretation (MSSE 81388 [13]; UTBLP + chloramphenicol): Additive (0.5 < x ≤ 4 is additive)
MICUTBLP (MSSE 81388 [13]; [17]): 16 µg/mL
MICUTBLP [MICcombo] (MSSE 81388 [13]; [18]): 8 µg/mL
MICchloramphenicol [MICcombo] (MSSE 81388 [13]; [19]): 0.25 µg/mL
Interpretation (MRSE 61589 [14]; UTBLP + chloramphenicol): Additive (0.5 < x ≤ 4 is additive)
MICUTBLP (MRSE 61589 [14]; [17]): 8 µg/mL
MICUTBLP [MICcombo] (MRSE 61589 [14]; [18]): 4 µg/mL
MICchloramphenicol [MICcombo] (MRSE 61589 [14]; [19]): 4 µg/mL
Interpretation (E. faecalis ATCC 29212 [15]; UTBLP + chloramphenicol): Additive (0.5 < x ≤ 4 is additive)
MICUTBLP (E. faecalis ATCC 29212 [15]; [17]): 32 µg/mL
MICUTBLP [MICcombo] (E. faecalis ATCC 29212 [15]; [18]): 4 µg/mL
MICchloramphenicol [MICcombo] (E. faecalis ATCC 29212 [15]; [19]): 4 µg/mL
MIC (A. baumannii ATCC 17978): 64 µg/mL (≈ 70.3 µM)
MIC (E. faecalis ATCC 29212 [16]): 32 µg/mL (≈ 35.2 µM)
